Key:
Assay in all cases: relative viability (nuclei count vs DMSO), 5 days (fraction); higher = more cells survive
[1] = compound: CN(c1ncccc1CNc1nc(Nc2ccc3c(c2)CC(=O)N3)ncc1C(F)(F)F)S(C)(=O)=O + CC(C)C[C@H](NC(=O)[C@H](Cc1ccccc1)NC(=O)c1cnccn1)B(O)O [Bortezomib] (partner 0.002 µM)
Summary of the method: (§1)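 For relative viability, nuclei counts in treated wells were divided by those in vehicle wells. Lung cancer cell lines had been pin-tool dosed in 1536-well plates the day after seeding and cultured for 5 days, then fixed and stained in one step (final 0.05% Triton X-100, 1% formaldehyde, 1 ug/ml Hoechst) and imaged at 4×. Doses were one drug alone or a fixed anchor-drug dose plus five library-drug doses (not always all listed) in √10 steps, and values are duplicate-plate medians.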

[2] = compound: CN(c1ncccc1CNc1nc(Nc2ccc3c(c2)CC(=O)N3)ncc1C(F)(F)F)S(C)(=O)=O + COc1cc2c(Oc3ccc(NC(=O)C4(C(=O)Nc5ccc(F)cc5)CC4)cc3F)ccnc2cc1OCCCN1CCOCC1 [Foretinib] (partner 0.25 µM)
Summary of the method: as §1

[3] = compound: CN(c1ncccc1CNc1nc(Nc2ccc3c(c2)CC(=O)N3)ncc1C(F)(F)F)S(C)(=O)=O + CS(=O)(=O)N1CCN(Cc2cc3nc(-c4cccc5[nH]ncc45)nc(N4CCOCC4)c3s2)CC1 [Pictilisib] (partner 1 µM)
Summary of the method: as §1

[4] = compound: CN(c1ncccc1CNc1nc(Nc2ccc3c(c2)CC(=O)N3)ncc1C(F)(F)F)S(C)(=O)=O + CC(=O)c1c(C)c2cnc(Nc3ccc(N4CCNCC4)cn3)nc2n(C2CCCC2)c1=O [Palbociclib] (partner 0.5 µM)
Summary of the method: as §1

| Cell Line | relative viability ([1]; first compound 0.01 µM) | relative viability ([1]; first compound 0.03162 µM) | relative viability ([1]; first compound 0.1 µM) | relative viability ([1]; first compound 0.3162 µM) | relative viability ([1]; first compound 1 µM) | relative viability ([2]; first compound 0.01 µM) | relative viability ([2]; first compound 0.03162 µM) | relative viability ([2]; first compound 0.1 µM) | relative viability ([2]; first compound 0.3162 µM) | relative viability ([2]; first compound 1 µM) | relative viability ([3]; first compound 0.01 µM) | relative viability ([3]; first compound 0.03162 µM) | relative viability ([3]; first compound 0.1 µM) | relative viability ([3]; first compound 0.3162 µM) | relative viability ([3]; first compound 1 µM) | relative viability ([4]; first compound 0.01 µM) | relative viability ([4]; first compound 0.03162 µM) | relative viability ([4]; first compound 0.1 µM) | relative viability ([4]; first compound 0.3162 µM) | relative viability ([4]; first compound 1 µM) |
| --- | --- | --- | --- | --- | --- | --- | --- | --- | --- | --- | --- | --- | --- | --- | --- | --- | --- | --- | --- | --- |
| NCI-H3122 | 1.04 | 1.03 | 1.01 | 0.968 | 0.891 | 1.01 | 0.876 | 0.916 | 0.902 | 0.929 | 0.599 | 0.673 | 0.627 | 0.572 | 0.584 | 0.204 | 0.188 | 0.155 | 0.202 | 0.149 |
| PC-3 [JPC-3] | 0.853 | 0.801 | 0.827 | 0.855 | 0.829 | 1.07 | 1.03 | 0.999 | 1.04 | 0.929 | 0.747 | 0.723 | 0.75 | 0.782 | 0.71 | 0.606 | – | 0.529 | 0.453 | 0.455 |
| PC-14 | 1.02 | 0.935 | 0.984 | 0.799 | 0.821 | 1.01 | 1.04 | 1.01 | 1.07 | 1 | 0.829 | 0.872 | 0.716 | 0.66 | 0.533 | 0.543 | 0.635 | 0.526 | 0.515 | 0.364 |
| RERF-LC-KJ | 1.08 | 1.23 | 1.11 | 1.13 | 0.999 | 0.867 | 1.03 | 0.861 | 0.843 | 0.939 | 0.494 | 0.577 | 0.551 | 0.548 | 0.622 | 1.17 | 1.15 | 1.09 | 1.03 | 1.02 |
| SK-LU-1 | 1.33 | 1.28 | 0.839 | 1.24 | 1.12 | 0.823 | 0.845 | 0.712 | 0.815 | 0.61 | 0.519 | 0.53 | 0.473 | 0.554 | 0.423 | 0.405 | 0.358 | 0.398 | 0.401 | 0.369 |
| SW 1573 | 1.17 | 0.898 | 0.977 | 1.05 | 1.11 | 0.961 | 0.856 | 0.884 | 1.16 | 0.975 | 0.584 | 0.52 | 0.422 | 0.573 | 0.454 | 0.482 | 0.399 | 0.346 | 0.31 | 0.35 |
| UMC-11 | 0.795 | 0.634 | 0.649 | 0.589 | 0.672 | 0.972 | 1.14 | 0.953 | 1.01 | 0.823 | 0.759 | 0.843 | 0.793 | 0.847 | 0.708 | 0.316 | 0.346 | 0.394 | 0.317 | 0.34 |

Source: the supplement of paper PMC10307832
